Where no end group is shown, it is not given here.
Columns and labels:
[1] = system: E. coli ATCC25922 ΔwaaG; assay type: cell-based, Escherichia coli; details: Table 6, triplicates
Excerpt: (§1) The E. coli strains 470, F632, F653 and F2513 were kindly provided by Prof. H. Brade and Prof. S. Muller-Loennies, Research Center Borstel, Leipniz-Center for Medicine and Biosciences, Germany. E. coli BW25113 (CGSC#:7636), a derivative of F^−, λ^− E. coli K12 strain BD792 is the wild-type strain which was used in the generation of the KEIO collection and ordered from the Coli Genetic Stock Centre (CGSC, Yale University). E. coli JW3596, E. coli JW3024, E. coli JW3595, E. coli JW3606, E. coli JW0212, E. coli JW1667, E. coli JW0554, E. coli JW3605 and E. coli JW3600 are isogenic mutants of waaC, waaE, waaF, waaG, gmhA (lpcA), lpp, ompT, waaP, or waaY derived from the parental strain E. coli BW25113 and were ordered from the KEIO collection (Baba et al., [2006]). E. coli ATCC25922 is a clinical isolate, serotype O6, often used as control strain in antimicrobial susceptibility testing was ordered from the ATCC strain collection. All strains were grown in Mueller-Hinton-II medium and incubation took place aerobically at 37°C for 18–20 h.
(§2) The minimum inhibitory concentrations (MICs) of the AMPs were measured in 96-well microtiter plates according the Clinical and Laboratory Standards Institute [CLSI, formerly National Committee for Clinical Laboratory Standards (NCCLS)] (Wikler et al., [2009]). Liquid Mueller-Hinton-II medium containing increasing concentrations of AMPs is inoculated with a defined number of cells (~10^5 CFUs/ml) in 96-well microtiter plates (polypropylene). Each microtiter plate includes a positive growth control and a negative control (sterile control). After incubation, the minimal inhibitory concentration (MIC) is determined by the lowest concentration showing no visible growth. All plates were incubated for 16–20 h.

[2] = system: E. coli ATCC25922; assay type: cell-based, Escherichia coli; details: Table 6; E. coli ATCC25922 wild-type; triplicates
Excerpt: as §1, §2

[3] = system: E. coli ATCC25922 ΔwaaC; assay type: cell-based, Escherichia coli; details: Table 6, triplicates
Excerpt: as §1, §2

[4] = system: E. coli ATCC25922 ΔwaaF; assay type: cell-based, Escherichia coli; details: Table 6, triplicates
Excerpt: as §1, §2

[5] = system: E. coli ATCC25922 ΔwaaE; assay type: cell-based, Escherichia coli; details: Table 6, triplicates
Excerpt: as §1, §2

[6] = system: Y. ruckeri 392/2003; assay: MIC testing (CLSI broth microdilution); assay type: cell-based; details: Table 6, triplicates
Description: as §2

[7] = system: S. typhimurium LT2; assay: MIC testing (CLSI broth microdilution); assay type: cell-based; details: Table 6, triplicates
Description: as §2

[8] = system: E. coli BW25113 waaF::kan; assay type: cell-based, Escherichia coli; details: Table 3; BW25113 waaF::kan; Mueller-Hinton-II, 16–20 h; duplicates (*) or triplicates
Excerpt: as §1, §2

[9] = system: E. coli F2513 (R4); assay type: cell-based, Escherichia coli; details: Table 4; E. coli F2513 (R4 prototype, rough LPS); triplicates
Excerpt: as §1, §2

[10] = system: E. coli F632 (R2); assay type: cell-based, Escherichia coli; details: Table 4; E. coli F632 (R2 prototype, rough LPS); triplicates
Excerpt: as §1, §2

[11] = system: E. coli F653 (R3); assay type: cell-based, Escherichia coli; details: Table 4; E. coli F653 (R3 prototype, rough LPS); triplicates
Excerpt: as §1, §2

[12] = system: E. coli BW25113 waaC::kan; assay type: cell-based, Escherichia coli; details: Table 3; BW25113 waaC::kan; Mueller-Hinton-II, 16–20 h; duplicates (*) or triplicates
Excerpt: as §1, §2

[13] = system: E. coli BW25113 waaE::kan; assay type: cell-based, Escherichia coli; details: Table 3; BW25113 waaE::kan; Mueller-Hinton-II, 16–20 h; duplicates (*) or triplicates
Excerpt: as §1, §2

[14] = system: E. coli BW25113 ompT::kan; assay type: cell-based, Escherichia coli; details: Table 3; BW25113 ompT::kan; Mueller-Hinton-II, 16–20 h; duplicates (*) or triplicates
Excerpt: as §1, §2

[15] = system: E. coli F470 (R1); assay type: cell-based, Escherichia coli; details: Table 4; E. coli F470 (R1 prototype, rough LPS); triplicates
Excerpt: as §1, §2

[16] = system: E. coli BW25113 gmhA::kan; assay type: cell-based, Escherichia coli; details: Table 3; BW25113 gmhA::kan; Mueller-Hinton-II, 16–20 h; duplicates (*) or triplicates
Excerpt: as §1, §2

[17] = system: E. coli BW25113; assay type: cell-based, Escherichia coli; details: Table 3; E. coli BW25113 wild type; Mueller-Hinton-II, ~10^5 CFUs/ml, 16–20 h; duplicates (*) or triplicates
Excerpt: as §1, §2

[18] = system: E. coli BW25113 waaG::kan; assay type: cell-based, Escherichia coli; details: Table 3; BW25113 waaG::kan; Mueller-Hinton-II, 16–20 h; duplicates (*) or triplicates
Excerpt: as §1, §2

Sequence | Antimicrobial activity: MIC [1] [µg/mL] | Antimicrobial activity: MIC [2] [µg/mL] | Antimicrobial activity: MIC [3] [µg/mL] | Antimicrobial activity: MIC [4] [µg/mL] | Antimicrobial activity: MIC [5] [µg/mL] | Antimicrobial activity: MIC [6] [µg/mL] | Antimicrobial activity: MIC [7] [µg/mL] | MIC [8] [µg/mL] | Antimicrobial activity (MIC) [9] [µg/mL] | Antimicrobial activity (MIC) [10] [µg/mL] | Antimicrobial activity (MIC) [11] [µg/mL] | MIC [12] [µg/mL] | MIC [13] [µg/mL] | MIC [14] | Antimicrobial activity (MIC) [15] [µg/mL] | MIC [16] | MIC [17] [µg/mL] | MIC [18] [µg/mL]
GLRKRLRKFRNKFKEKLKKIGQKIQGLLPKLAPRTDY [I13F] | 2 | 4 | 2 | 2 | 2 | 2 | 4 | – | – | – | – | – | – | – | – | – | – | –
GLRKRLRKFRNKIKEKLPKIGQKIQGLLPKLAPRTDY [K18P] | 4 | 8 | 2 | 4 | 4 | 32 | 4 | – | – | – | – | – | – | – | – | – | – | –
GLRKRPRKFRNKIKEKLKKIGQKIQGLLPKLAPRTDY [L6P] | 4 | 8 | 4 | 4 | 8 | 64 | 8 | – | – | – | – | – | – | – | – | – | – | –
GLRKRLRKFRNKIKECLKKIGQKIQGLLPKLAPRTDY [K16C] | 8 | 8 | 4 | 4 | 8 | 8 to 16 | 8 to 16 | – | – | – | – | – | – | – | – | – | – | –
GLRKRLRKFRNKIKEKDKKIGQKIQGLLPKLAPRTDY [L17D] | ≥64 | ≥64 | ≥64 | ≥64 | ≥64 | ≥64 | ≥64 | – | – | – | – | – | – | – | – | – | – | –
GLRKRLRKFRNKRKEKLKKIGQKIQGLLPKLAPRTDY [I13R] | 8 | ≥64 | 32 | 16 | ≥64 | 32 to 64 | 16 to 32 | – | – | – | – | – | – | – | – | – | – | –
GLRKRLRKFRNKMKEKLKKIGQKIQGLLPKLAPRTDY [I13M] | 4 | 8 | 4 | 4 | 8 | 4 | 8 | – | – | – | – | – | – | – | – | – | – | –
GLRKRLRKFRNKIKEKLKKIGQKNQGLLPKLAPRTDY [I24N] | 16 | ≥64 | 8 | 8 | 16 | ≥64 | 32 | – | – | – | – | – | – | – | – | – | – | –
GLRKRLRKFRNKDKEKLKKIGQKIQGLLPKLAPRTDY [I13D] | ≥64 | ≥64 | ≥64 | ≥64 | ≥64 | ≥64 | ≥64 | – | – | – | – | – | – | – | – | – | – | –
GLRKRLRKFRNKIKEKLKKNGQKIQGLLPKLAPRTDY [I20N] | 16 | ≥64 | 16 | 8 | 16 | ≥64 | 8 to 16 | – | – | – | – | – | – | – | – | – | – | –
GLRKRLRKFRNKIKEKPKKIGQKIQGLLPKLAPRTDY [L17P] | ≥64 | ≥64 | ≥64 | ≥64 | ≥64 | ≥64 | ≥64 | – | – | – | – | – | – | – | – | – | – | –
GLRKRLRKFRNKPKEKLKKIGQKIQGLLPKLAPRTDY [I13P] | 32 | ≥64 | 32 | 16 | 32 | ≥64 | 16 to 32 | – | – | – | – | – | – | – | – | – | – | –
KLRKLFRKLLKLIRKLLR [Cap11-1-18 m^2] | – | – | – | – | – | – | – | 8 | 8 to 16 | 16 to 32 | ≥32 | 8 | 8 | 8 ^* μg/ml | 32 | 8 ^* μg/ml | 8 to 16 | 8
GLRKRLRKFRNKIKEKLKKIGQKIQTLLPKLAPRTDY [G26T] | 4 | 8 | 4 | 4 | 4 | 2 to 4 | 4 to 8 | – | – | – | – | – | – | – | – | – | – | –
GLRKRLRKFRNKHKEKLKKIGQKIQGLLPKLAPRTDY [I13H] | 2 | 4 | 2 | 2 | 2 | 8 to 16 | 4 | – | – | – | – | – | – | – | – | – | – | –
GLRKRLRKFRNKIKEKLKKIGQKDQGLLPKLAPRTDY [I24D] | ≥64 | ≥64 | 16 | 16 | 16 | ≥64 | ≥64 | – | – | – | – | – | – | – | – | – | – | –
GLRKRLRKFRNKIKEDLKKIGQKIQGLLPKLAPRTDY [K16D] | 4 | 4 | 2 | 2 | 8 | 4 | 4 | – | – | – | – | – | – | – | – | – | – | –

Source: article PMC6137088, “The Role of Outer Membrane Proteins and Lipopolysaccharides for the Sensitivity of Escherichia coli to Antimicrobial Peptides” (Frontiers in Microbiology, 2018)
